In US5846525A, “Protected biopolymers for oral administration and methods of using same” (Trega Biosciences, Inc., priority 1995, dated 1998):
“And” between values parts separate entries of the source, which are not always exact repeats. Equal values may be shown once.

Tests used:
[1] = Binding of CRA-1 to Amberlite IRP-69 cation exchange resin (HPLC of filtrate); assay type: physicochemical
Protocol: CRA-1, which has the amino acid sequence Ac-Nle-Gln-His-(D)Phe-Arg-(D)Trp-Gly-NH2, was prepared as described in U.S. Pat. No. 5,420,109, where it is referred to as "EX-2." A 1 mg/ml solution of peptide CRA-1 was prepared by dissolving 19.7 mg CRA-1 in 19.7 ml PBS. Ten mg Amberlite® IRP-69 ("IRP-69") (Rohm and Haas) was added to 5 ml CRA-1 solution (5 mg CRA-1) to achieve a CRA-1:IRP-69 ratio of 1:2. The mixture was adjusted to pH 6.0 and stirred for 2 hr. The suspension then was filtered and the filtrate was analyzed by HPLC (see Example II.A) to determine the total amount of CRA-1 bound to IRP-69. Binding also was performed using CRA-1:IRP-69 ratios of 1:20 and 1:200.

[2] = Binding of CRA-1 to Amberlite IRP-64 cation exchange resin (HPLC of filtrate); assay type: physicochemical
Protocol: A 1 mg/ml CRA-1 solution was prepared by dissolving 42.5 mg CRA-1 in 42.5 ml PBS. Fifty mg Amberlite® IRP-64 ("IRP-64") (Rohm and Haas) was added to 5 ml CRA-1 solution (5 mg CRA-1) to achieve a peptide:resin ratio of 1:10. The mixture was adjusted to pH 6.0 and stirred for 1 hr. The suspension was filtered and the filtrate was analyzed by HPLC (see Example II.A) to determine the total amount of CRA-1 bound to IRP-64. Binding also was performed using CRA-1: IRP-64 ratios of 1:1, 1:2 and 1:20.

trypsin [3] = target: T1, trypsin (Bos taurus, UniProt P00760); experiment: Susceptibility of free peptide to enzymatic degradation by trypsin; assay type: in vitro ADME; conditions: 37° C.
T1 construct: gene PRSS1
T1 sequence (P00760 24-246): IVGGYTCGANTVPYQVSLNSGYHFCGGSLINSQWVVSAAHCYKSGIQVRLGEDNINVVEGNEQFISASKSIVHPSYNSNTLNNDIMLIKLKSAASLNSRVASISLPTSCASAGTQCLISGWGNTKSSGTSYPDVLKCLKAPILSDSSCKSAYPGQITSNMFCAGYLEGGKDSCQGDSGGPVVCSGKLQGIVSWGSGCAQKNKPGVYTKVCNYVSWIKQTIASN
Protocol: (§1) Phosphate buffered saline (PBS) solutions were prepared and adjusted to pH 5.0, 7.0 or 8.0. CRA-1 was dissolved into each of the PBS solutions to a final concentration of 3 mg/ml. Samples of 3 mg/ml trypsin and 3 mg/ml chymotrypsin also were prepared in PBS at pH 5.0, 7.0 or 8.0.
(§2) To examine the susceptibility of CRA-1 to trypsin and chymotrypsin, 1 ml CRA-1 solution at pH 5.0 was mixed with 1 ml trypsin solution at pH 5.0 and 1 ml PBS (pH 5.0) to obtain a final concentration of 1 mg/ml CRA-1 and 1 mg/ml trypsin. Similar assay samples were prepared to examine the stability of CPA-1 in trypsin at pH 7.0 or pH 8.0 and in chymotrypsin at pH 5.0, 7.0 or 8.0. As a control, an assay sample was prepared without trypsin or chymotrypsin.
(§3) Immediately upon preparing an assay sample, 100 μl of the incubation mixture was removed and the reaction was terminated by adding 100 μl of a Stop solution (90% acetonitrile containing 0.1% trifluoroacetic acid). These samples were analyzed by HPLC to determine the amount of CRA-1 present in each sample at the initiation of the reaction.
(§4) The remainder of each assay sample was incubated in an oven at 37° C. At selected times after beginning the incubation, a 100 μl aliquot was withdrawn, the reaction was terminated as described above. The samples were analyzed by HPLC to determine the amount of intact CRA-1.

chymotrypsin [4] = target: T2, chymotrypsin (Bos taurus, UniProt P00766); experiment: Susceptibility of free peptide to enzymatic degradation by chymotrypsin; assay type: in vitro ADME; conditions: 37° C.
Protocol: as §1, §2, §3, §4

trypsin [5] = target: T1, trypsin; experiment: Stability of peptide-ion exchange resin complex to enzymatic degradation by trypsin; assay type: in vitro ADME; conditions: unbound control
Protocol: (§5) Fifty mg or 100 mg of the complex was suspended in 5 ml of PBS (pH 7.0) containing either 1 mg/ml trypsin or 1 mg/ml chymotrypsin. The suspensions were rotated at 200 rpm in an incubator at 37° C. for 2 hr. Following incubation, the suspension was vacuum-filtered and the filtrate was analyzed by HPLC to determine the amount of CRA-1 bound to the IRP-64. […] After 1 hr, the suspension was vacuum-[…] ion exchange resin was washed and filtered a second time with 50 ml 2M KCl. The filtrate and wash were analyzed by HPLC to determine the amount of drug recovered from the ion exchange resin.

trypsin [6] = test system: T3, trypsin; experiment: as above; assay type: in vitro ADME; conditions: isolated enzyme trypsin, pH 7, unbound control, read-out: CRA-1 remaining
T3 construct: gene PRSS1
Protocol: as §5

chymotrypsin [7] = target: T2, chymotrypsin; experiment: Stability of peptide-ion exchange resin complex to enzymatic degradation by chymotrypsin; assay type: in vitro ADME; conditions: unbound control
Protocol: as §5

chymotrypsin [8] = experiment: as above; assay type: in vitro ADME; conditions: isolated enzyme chymotrypsin, pH 7, unbound control, read-out: CRA-1 remaining
Protocol: as §5

In the case of `CCCC[C@H](NC(C)=O)C(=O)N[C@@H](CCC(N)=O)C(=O)N[C@@H](Cc1c[nH]cn1)C(=O)N[C@H](Cc1ccccc1)C(=O)N[C@@H](CCCNC(=N)N)C(=O)N[C@H](Cc1c[nH]c2ccccc12)C(=O)NCC(N)=O` [CRA-1, Ac-Nle-Gln-His-(D)Phe-Arg-(D)Trp-Gly-NH2], the “CRA-1 bound to ion exchange resin” value ([1]; IRP-69, peptide:resin ratio 1:2, PBS pH 6.0, stirred 2 hr) is reported as 66.91%, the “CRA-1 bound to ion exchange resin” value ([1]; IRP-69, peptide:resin ratio 1:20, PBS pH 6.0, stirred 2 hr) is reported as 99.63% and the “CRA-1 bound to ion exchange resin” value ([1]; IRP-69, peptide:resin ratio 1:200, PBS pH 6.0, stirred 2 hr) is reported as 99.5% and 99.52%. The “CRA-1 bound to ion exchange resin” value ([2]; IRP-64, peptide:resin ratio 1:1, PBS pH 6.0, stirred 1 hr) was 10.48%, the “CRA-1 bound to ion exchange resin” value ([2]; IRP-64, peptide:resin ratio 1:2, PBS pH 6.0, stirred 1 hr) was 20.08% and the “CRA-1 bound to ion exchange resin” value ([2]; IRP-64, peptide:resin ratio 1:10, PBS pH 6.0, stirred 1 hr) was 97.55%. The “CRA-1 bound to ion exchange resin” value ([2]; IRP-64, peptide:resin ratio 1:20, PBS pH 6.0, stirred 1 hr) was 98.97%, the “stability in the presence of trypsin” value (trypsin [3]; pH 5.0, 1 mg/ml CRA-1, 1 mg/ml trypsin) was “stable” and the “half-life of degradation by trypsin” value (trypsin [3]; pH 7.0 or 8.0, 1 mg/ml CRA-1, 1 mg/ml trypsin) was 20 to 30 min. For the same compound, the “stability in the presence of chymotrypsin” value (chymotrypsin [4]; pH 5.0, 1 mg/ml CRA-1, 1 mg/ml chymotrypsin) was “stable”, the “half-life of degradation by chymotrypsin” value (chymotrypsin [4]; pH 7.0 or 8.0, 1 mg/ml CRA-1, 1 mg/ml chymotrypsin) was 20 to 30 min and the CRA-1 remaining (trypsin [5]) was “almost completely degraded”. For the same compound, the remaining at 2 h (trypsin [6]) was 2.96%, the CRA-1 remaining (chymotrypsin [7]) was “almost completely degraded” and the remaining at 2 h (chymotrypsin [8]) was 5.47%.
